Assay type in all cases: biochemical
Experiment [1] deals with T1, MMP-13 (Homo sapiens, UniProt P45452).
T1 construct: purchased R&D Systems 511-MM
Put plainly: MMP-13 IC50 enzyme assay with fTHP-15 substrate. The note with it: for IC50: fTHP substrate. The method, then: Inhibitor kinetics: Inhibition experiments were conducted as described previously.^3 Briefly, fTHP-15, MMP-13, and inhibitor working solutions were prepared in EAB.
The enzyme was allowed to incubate with the test compounds for 30 min at 25° C. The assays were initiated by addition of 5 μL of fTHP-15 or Knight substrate and immediately placed in the microplate reader to record fluorescence.
To determine IC50 values of each compound, the relative fluorescence units (RFU) from wells containing MMP-13, fTHP-15, and inhibitors were plotted vs. no-enzyme and untreated controls.

The next experiment addresses Cathepsin-K (Homo sapiens, UniProt P43235). Put plainly: Protease selectivity profiling. Set-up: inhibition: dose or concentration left out as unconfirmed.
The target in another experiment is T2, Factor-XA (Homo sapiens, UniProt P00742).
T2 construct: Factor-XA
T2 sequence (P00742 235-488 limits assumed): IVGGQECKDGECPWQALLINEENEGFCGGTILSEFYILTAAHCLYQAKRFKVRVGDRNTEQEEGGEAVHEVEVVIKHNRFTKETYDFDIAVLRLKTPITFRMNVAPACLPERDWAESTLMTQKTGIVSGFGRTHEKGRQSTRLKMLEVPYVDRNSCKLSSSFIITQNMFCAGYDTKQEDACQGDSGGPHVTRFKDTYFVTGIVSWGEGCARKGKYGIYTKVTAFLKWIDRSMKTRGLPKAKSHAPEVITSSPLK
T2 sequence (P00742 41-179 partner limits assumed): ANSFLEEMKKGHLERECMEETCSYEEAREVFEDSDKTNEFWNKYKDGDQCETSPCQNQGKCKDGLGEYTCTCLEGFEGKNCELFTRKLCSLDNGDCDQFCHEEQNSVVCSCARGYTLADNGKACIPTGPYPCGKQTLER
The experiment can be described thus: Protease selectivity profiling. Also on record: inhibition: dose or concentration left out as unconfirmed.

A further experiment addresses IDE (Homo sapiens, UniProt P14735). Put plainly: Protease selectivity profiling. Also on record: inhibition: dose or concentration left out as unconfirmed.
The target in the next experiment is Thrombin (Homo sapiens, UniProt P00734). The experiment can be described thus: Protease selectivity profiling. The note with it: read-out: % Inhibition Thrombin.
In another experiment the target is Caspase-2 (Homo sapiens, UniProt P42575). The experiment can be described thus: Protease selectivity profiling. Also on record: inhibition: dose or concentration left out as unconfirmed.
The target in the next experiment is Cathepsin-D (Homo sapiens, UniProt P07339). The experiment can be described thus: Protease selectivity profiling. Also on record: inhibition: dose or concentration left out as unconfirmed.
Cathepsin-D, sequence (P07339 65-412, species assumed): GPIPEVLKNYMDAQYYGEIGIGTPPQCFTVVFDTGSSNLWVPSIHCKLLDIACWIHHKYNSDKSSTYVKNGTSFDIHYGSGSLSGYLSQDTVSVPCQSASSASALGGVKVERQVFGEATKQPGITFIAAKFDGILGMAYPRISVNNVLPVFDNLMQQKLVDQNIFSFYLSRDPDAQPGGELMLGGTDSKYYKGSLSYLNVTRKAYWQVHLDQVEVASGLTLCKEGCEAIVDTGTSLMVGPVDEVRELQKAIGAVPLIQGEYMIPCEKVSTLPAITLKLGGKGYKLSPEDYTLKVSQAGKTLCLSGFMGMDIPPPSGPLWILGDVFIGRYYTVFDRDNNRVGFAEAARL
For a further experiment, the target named is ACE2 (Homo sapiens, UniProt Q9BYF1). The experiment can be described thus: Protease selectivity profiling. Also on record: inhibition: dose or concentration left out as unconfirmed.
For another experiment, the target named is Caspase-7 (Homo sapiens, UniProt P55210). The experiment can be described thus: Protease selectivity profiling. Set-up: inhibition: dose or concentration left out as unconfirmed.
For a further experiment, the target named is MMP-7 (Homo sapiens, UniProt P09237). Put plainly: Protease selectivity profiling. Set-up: inhibition: dose or concentration left out as unconfirmed.
The target of a further experiment is Cathepsin-L (Homo sapiens, UniProt P07711). Put plainly: Protease selectivity profiling. Set-up: inhibition: dose or concentration left out as unconfirmed.
The target in the next experiment is Furin (Homo sapiens, UniProt P09958). The experiment can be described thus: Protease selectivity profiling. Also on record: inhibition: dose or concentration left out as unconfirmed.
The next experiment addresses ADAM10 (Homo sapiens, UniProt O14672). Put plainly: Protease selectivity profiling. Also on record: inhibition: dose or concentration left out as unconfirmed.
In another experiment the target is uPA (Homo sapiens, UniProt P00749). Put plainly: Protease selectivity profiling. Set-up: inhibition: dose or concentration left out as unconfirmed.
A further experiment deals with Cathepsin-S (Homo sapiens, UniProt P25774). The experiment can be described thus: Protease selectivity profiling. Set-up: inhibition: dose or concentration left out as unconfirmed.
A further experiment deals with ACE (Homo sapiens, UniProt P12821). The experiment can be described thus: Protease selectivity profiling. Also on record: inhibition: dose or concentration left out as unconfirmed.
ACE, sequence (P12821 30-1306, species assumed): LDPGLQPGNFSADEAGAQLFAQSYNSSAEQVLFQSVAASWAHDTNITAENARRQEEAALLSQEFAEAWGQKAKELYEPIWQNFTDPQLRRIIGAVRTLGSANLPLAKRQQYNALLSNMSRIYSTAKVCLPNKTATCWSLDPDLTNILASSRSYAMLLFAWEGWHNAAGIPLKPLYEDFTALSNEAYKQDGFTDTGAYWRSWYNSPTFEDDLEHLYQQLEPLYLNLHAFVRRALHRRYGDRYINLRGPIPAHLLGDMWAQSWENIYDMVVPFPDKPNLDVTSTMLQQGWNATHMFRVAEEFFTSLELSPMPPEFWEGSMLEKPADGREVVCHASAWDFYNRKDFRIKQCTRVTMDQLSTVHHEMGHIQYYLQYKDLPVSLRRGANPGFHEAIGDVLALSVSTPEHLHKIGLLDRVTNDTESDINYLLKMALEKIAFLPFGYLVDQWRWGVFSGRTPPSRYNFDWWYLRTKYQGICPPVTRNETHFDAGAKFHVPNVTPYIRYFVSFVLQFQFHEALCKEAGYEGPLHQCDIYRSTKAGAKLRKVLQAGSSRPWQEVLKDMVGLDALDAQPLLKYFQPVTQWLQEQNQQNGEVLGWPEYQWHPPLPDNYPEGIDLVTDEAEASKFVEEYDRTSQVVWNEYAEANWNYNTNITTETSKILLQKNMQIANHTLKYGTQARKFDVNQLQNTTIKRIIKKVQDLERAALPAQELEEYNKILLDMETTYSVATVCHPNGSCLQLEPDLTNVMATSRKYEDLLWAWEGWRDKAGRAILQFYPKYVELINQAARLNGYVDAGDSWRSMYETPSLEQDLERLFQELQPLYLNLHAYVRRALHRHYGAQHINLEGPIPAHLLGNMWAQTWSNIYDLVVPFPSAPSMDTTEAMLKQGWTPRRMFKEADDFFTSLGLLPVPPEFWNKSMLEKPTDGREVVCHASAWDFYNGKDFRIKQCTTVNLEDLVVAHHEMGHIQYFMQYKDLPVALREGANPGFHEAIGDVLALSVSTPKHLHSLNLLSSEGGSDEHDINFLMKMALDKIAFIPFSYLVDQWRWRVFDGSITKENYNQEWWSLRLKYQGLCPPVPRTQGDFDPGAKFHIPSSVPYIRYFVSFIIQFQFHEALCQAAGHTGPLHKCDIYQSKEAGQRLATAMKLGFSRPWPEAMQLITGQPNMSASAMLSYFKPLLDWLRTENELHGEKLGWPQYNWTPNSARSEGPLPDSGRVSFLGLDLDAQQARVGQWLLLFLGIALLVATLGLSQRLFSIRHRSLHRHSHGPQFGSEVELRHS
For another experiment, the target named is Neprilysin (Homo sapiens, UniProt P08473). Put plainly: Protease selectivity profiling. Set-up: inhibition: dose or concentration left out as unconfirmed.
Neprilysin, sequence (P08473 whole entry, species assumed): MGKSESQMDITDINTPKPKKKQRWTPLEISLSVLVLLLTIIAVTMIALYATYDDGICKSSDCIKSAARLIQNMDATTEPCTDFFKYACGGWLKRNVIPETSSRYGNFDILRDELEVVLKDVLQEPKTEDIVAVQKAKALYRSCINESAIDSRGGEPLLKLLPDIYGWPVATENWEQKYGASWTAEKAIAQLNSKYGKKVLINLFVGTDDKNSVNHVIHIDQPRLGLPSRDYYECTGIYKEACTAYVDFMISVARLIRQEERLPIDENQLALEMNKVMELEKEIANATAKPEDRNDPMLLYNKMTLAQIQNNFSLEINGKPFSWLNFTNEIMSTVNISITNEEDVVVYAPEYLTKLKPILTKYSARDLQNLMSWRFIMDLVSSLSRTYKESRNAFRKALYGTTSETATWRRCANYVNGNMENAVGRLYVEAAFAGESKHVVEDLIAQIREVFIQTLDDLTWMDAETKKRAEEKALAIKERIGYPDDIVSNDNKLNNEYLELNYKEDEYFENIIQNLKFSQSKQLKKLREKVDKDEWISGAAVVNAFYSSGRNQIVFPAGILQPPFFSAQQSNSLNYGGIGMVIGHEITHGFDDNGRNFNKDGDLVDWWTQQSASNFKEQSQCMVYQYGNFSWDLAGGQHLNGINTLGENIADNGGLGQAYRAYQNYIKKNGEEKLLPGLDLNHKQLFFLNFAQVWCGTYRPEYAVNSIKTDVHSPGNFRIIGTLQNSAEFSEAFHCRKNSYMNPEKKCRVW
The target of the next experiment is Caspase-1 (Homo sapiens, UniProt P29466). The experiment can be described thus: Protease selectivity profiling. Also on record: inhibition: dose or concentration left out as unconfirmed.
For a further experiment, the target named is Caspase-5 (Homo sapiens, UniProt P51878). The experiment can be described thus: Protease selectivity profiling. Also on record: inhibition: dose or concentration left out as unconfirmed.
Caspase-5, sequence (P51878 138-327 limits assumed, species assumed): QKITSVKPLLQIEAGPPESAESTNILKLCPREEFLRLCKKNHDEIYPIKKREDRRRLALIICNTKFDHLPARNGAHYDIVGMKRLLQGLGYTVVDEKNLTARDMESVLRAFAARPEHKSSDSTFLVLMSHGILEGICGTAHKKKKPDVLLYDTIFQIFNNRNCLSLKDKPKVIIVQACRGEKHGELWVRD
Caspase-5, sequence (P51878 347-434 limits assumed, species assumed): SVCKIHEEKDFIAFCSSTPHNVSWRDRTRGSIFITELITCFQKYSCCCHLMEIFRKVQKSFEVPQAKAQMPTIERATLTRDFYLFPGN
In another experiment the target is Caspase-3 (Homo sapiens, UniProt P42574). Put plainly: Protease selectivity profiling. Also on record: inhibition: dose or concentration left out as unconfirmed.
Another experiment deals with BACE-1 (Homo sapiens, UniProt P56817). Put plainly: Protease selectivity profiling. Set-up: inhibition: dose or concentration left out as unconfirmed.
The target in a further experiment is Caspase-6 (Homo sapiens, UniProt P55212). The experiment can be described thus: Protease selectivity profiling. Set-up: inhibition: dose or concentration left out as unconfirmed.
For another experiment, the target named is TACE (Homo sapiens, UniProt P78536). The experiment can be described thus: Protease selectivity profiling. Set-up: inhibition: dose or concentration left out as unconfirmed.
Experiment [2] has as its target T1, MMP-13. Put plainly: MMP-13 inhibition constant (Ki) determination, fTHP-15. The settings on record: fTHP-15 substrate, 4 nM MMP-13, mixed inhibition model. As to the method:
Rates of hydrolysis were obtained from plots of fluorescence versus time using data points from only the linear portion of the hydrolysis curve.
KM values were determined by nonlinear regression analysis using the one-site hyperbolic binding model^4 and additionally evaluated by linear analysis. All Ki values were determined by nonlinear regression (hyperbolic equation) analysis using the mixed inhibition model, which allows for simultaneous determination of the mechanism of inhibition, The mechanism of inhibition was determined using the “α” parameter derived from a mixed-model inhibition by GraphPad Prism. The mechanism of inhibition was additionally confirmed by Lineweaver-Burke plots.

The target of experiment [3] is T3, MMP-12 (Homo sapiens, UniProt P39900). The experiment can be described thus: Additional specificity assay, 10-point dilution IC50.
T3 sequence (P39900 106-470, species assumed): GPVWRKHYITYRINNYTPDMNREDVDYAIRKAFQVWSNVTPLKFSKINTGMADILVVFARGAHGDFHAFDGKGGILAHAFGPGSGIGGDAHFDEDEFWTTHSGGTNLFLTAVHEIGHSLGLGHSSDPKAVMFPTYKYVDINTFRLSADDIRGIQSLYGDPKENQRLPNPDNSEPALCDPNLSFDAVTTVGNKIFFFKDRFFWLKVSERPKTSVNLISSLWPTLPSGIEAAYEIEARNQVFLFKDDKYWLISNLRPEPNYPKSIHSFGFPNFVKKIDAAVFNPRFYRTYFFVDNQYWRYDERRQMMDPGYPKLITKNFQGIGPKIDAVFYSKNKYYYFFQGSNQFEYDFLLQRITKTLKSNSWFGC
The next experiment concerns the target MMP-3 (Homo sapiens, UniProt P08254). The experiment can be described thus: Protease selectivity profiling. The note with it: single stranded peptide substrate; inhibitor (text 1 μM); duplicates.
Experiment [4] concerns the target T3, MMP-12. The experiment can be described thus: Protease selectivity profiling. The note with it: single stranded peptide substrate; inhibitor 1 mM (footnote; text 1 μM); duplicates.
The target in the next experiment is T4, MMP-2 (Homo sapiens, UniProt P08253).
T4 construct: purchased R&D Systems
Put plainly: Selectivity assay MMP-2 (fTHP-15). The note with it: 200 nM. As to the method: (§1) All enzymes were purchased from R&D Systems and activated according to manufacturer's instructions. Upon activation, each enzyme was diluted in EAB to […] and stored at −80° C. until further use. […]

The next experiment concerns the target T5, MMP-8 (Homo sapiens, UniProt P22894).
T5 construct: purchased R&D Systems
The experiment can be described thus: Selectivity assay MMP-8 (fTHP-15). The note with it: 200 nM. As to the method: as §1

[5] abbreviates: single stranded peptide substrate, inhibitor 1 µM, duplicates.

This is an account of results in patent US20200181095A1, “SELECTIVE MATRIX METALLOPROTEINASE-13 INHIBITORS” (FLORIDA ATLANTIC UNIVERSITY BOARD OF TRUSTEES, priority 2017, published 2020).

Several values for one entry are separate records, joined by “and”; a condition that tells them apart may be missing. Equal entries are not always repeated. Where two headings read alike, the source gives them in different places.

IDE, sequence (P14735 whole entry, species assumed): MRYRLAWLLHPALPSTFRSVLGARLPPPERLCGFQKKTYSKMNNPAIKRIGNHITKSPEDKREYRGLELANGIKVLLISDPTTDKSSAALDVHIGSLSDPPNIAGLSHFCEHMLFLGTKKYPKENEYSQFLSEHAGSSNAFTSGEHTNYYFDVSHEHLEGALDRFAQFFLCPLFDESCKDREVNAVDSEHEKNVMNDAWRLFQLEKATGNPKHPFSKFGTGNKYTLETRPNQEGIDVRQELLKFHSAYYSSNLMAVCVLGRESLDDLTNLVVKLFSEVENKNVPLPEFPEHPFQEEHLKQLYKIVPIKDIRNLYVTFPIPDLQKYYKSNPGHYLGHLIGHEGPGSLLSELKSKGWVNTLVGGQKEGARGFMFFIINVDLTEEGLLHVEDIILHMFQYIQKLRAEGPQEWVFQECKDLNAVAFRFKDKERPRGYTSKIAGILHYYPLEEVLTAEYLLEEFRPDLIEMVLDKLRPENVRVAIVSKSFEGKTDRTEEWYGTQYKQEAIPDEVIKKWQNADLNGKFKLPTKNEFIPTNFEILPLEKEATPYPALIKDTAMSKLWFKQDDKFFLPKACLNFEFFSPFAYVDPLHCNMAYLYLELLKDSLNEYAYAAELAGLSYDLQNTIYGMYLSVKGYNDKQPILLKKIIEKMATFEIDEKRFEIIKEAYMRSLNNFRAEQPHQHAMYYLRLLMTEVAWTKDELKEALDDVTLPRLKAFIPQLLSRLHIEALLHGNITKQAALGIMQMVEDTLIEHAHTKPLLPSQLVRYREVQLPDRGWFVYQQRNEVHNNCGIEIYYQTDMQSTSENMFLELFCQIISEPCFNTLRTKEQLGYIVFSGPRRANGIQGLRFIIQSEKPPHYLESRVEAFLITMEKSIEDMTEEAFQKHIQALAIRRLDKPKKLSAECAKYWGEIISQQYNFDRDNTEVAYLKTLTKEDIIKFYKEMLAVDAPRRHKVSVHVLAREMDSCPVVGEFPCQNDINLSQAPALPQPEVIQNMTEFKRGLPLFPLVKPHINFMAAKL
ADAM10, sequence (O14672 214-748, species assumed): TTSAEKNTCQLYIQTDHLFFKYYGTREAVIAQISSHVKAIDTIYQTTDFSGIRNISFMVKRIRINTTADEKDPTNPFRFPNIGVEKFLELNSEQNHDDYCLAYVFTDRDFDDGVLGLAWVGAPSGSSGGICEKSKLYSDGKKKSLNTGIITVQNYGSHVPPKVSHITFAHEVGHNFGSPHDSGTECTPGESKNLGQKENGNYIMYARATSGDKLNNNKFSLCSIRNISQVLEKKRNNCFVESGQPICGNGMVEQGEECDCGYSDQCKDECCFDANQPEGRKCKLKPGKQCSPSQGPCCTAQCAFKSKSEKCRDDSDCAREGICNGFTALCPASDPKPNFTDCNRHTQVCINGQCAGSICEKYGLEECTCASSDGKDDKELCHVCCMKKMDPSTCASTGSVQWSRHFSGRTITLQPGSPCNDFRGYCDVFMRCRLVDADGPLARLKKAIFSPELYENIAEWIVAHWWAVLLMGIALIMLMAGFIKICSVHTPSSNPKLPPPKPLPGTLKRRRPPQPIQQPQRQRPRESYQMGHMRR

Usually IC50 stands for the midpoint of a concentration-inhibition curve. As for `CNC(=O)[C@H](NC(=O)c1ccc(-c2ccc(CSc3nc4c(c(=O)[nH]3)CCC4)cc2)o1)C(C)C` [(R)-17a], on MMP-13 [1], the “loss of inhibition activity vs. MMP-13 compared to the (S)-enantiomer” value is “ca. 12 fold” and the IC50 came to 72 nM.

As usually defined, the inhibition is the relative decrease from the control value, in per cent. Regarding `CNC(=O)[C@@H](NC(=O)c1ccc(-c2ccc(CSc3nc4c(c(=O)[nH]3)CCC4)c(F)c2)o1)C(C)C` [Compound (S)-17b], the inhibition on Cathepsin-K (read-out: % Inhibition Cathepsin-K) was 2%; on Factor-XA (read-out: % Inhibition Factor-XA), 0%; on IDE (read-out: % Inhibition IDE), 0%; at Thrombin, -8%; on Caspase-2 (read-out: % Inhibition Caspase-2) it was 0%; at Cathepsin-D (read-out: % Inhibition Cathepsin-D), 0%. Besides, the inhibition at ACE2 (read-out: % Inhibition ACE2) was determined as 0%; at Caspase-7 (read-out: % Inhibition Caspase-7), 8%; on MMP-7 (read-out: % Inhibition MMP-7) it was 4%; on Cathepsin-L (read-out: % Inhibition Cathepsin-L) it was 7%; at Furin (read-out: % Inhibition Furin) it was 0%; on ADAM10 (read-out: % Inhibition ADAM10) it was 0%. The inhibition at uPA (read-out: % Inhibition uPA) is 1%; at Cathepsin-S (read-out: % Inhibition Cathepsin-S), 2%; on ACE (read-out: % Inhibition ACE), 0%; at Neprilysin (read-out: % Inhibition Neprilysin), -6%; at Caspase-1 (read-out: % Inhibition Caspase-1), 0%; on Caspase-5 (read-out: % Inhibition Caspase-5), 0%. For the same molecule, the inhibition at Caspase-3 (read-out: % Inhibition Caspase-3) was 0%; at BACE-1 (read-out: % Inhibition BACE-1), 0%; on Caspase-6 (read-out: % Inhibition Caspase-6), 0%; on TACE (read-out: % Inhibition TACE), -3%.

For orientation: Ki means the dissociation constant of the complex between target and ligand, obtained from inhibition or displacement. The molecule `CC(C)[C@H](NS(=O)(=O)c1ccc(-c2ccc(CSc3nc4c(c(=O)[nH]3)CCC4)cc2)cc1)C(=O)O` [(S)-10a] registered a Ki at MMP-13 [2] of 2.3 nM. For the same molecule, the half-maximal inhibitory concentration (IC50) against MMP-13 [1] was determined as 2.2 nM.

In turn, `O=C(O)CNS(=O)(=O)c1ccc(-c2ccc(CSc3nc4c(c(=O)[nH]3)CCC4)cc2)cc1` [Compound 10b] had an inhibitory constant (Ki) at MMP-13 [2] of 1.8 nM. This molecule yielded an IC50 at MMP-13 [1] of 1.6 nM.

Regarding `CC(C)[C@@H](NS(=O)(=O)c1ccc(-c2ccc(CSc3nc4c(c(=O)[nH]3)CCC4)cc2)cc1)C(=O)O` [Compound (R)-10a], the affinity on MMP-13 [2] corresponds to a Ki of 1.6 nM. For the same molecule, the 50% inhibitory concentration (IC50) on MMP-13 [1] came out at 2.4 nM.

For `NCCNS(=O)(=O)c1ccc(-c2ccc(CSc3nc4c(c(=O)[nH]3)CCC4)cc2)cc1` [Compound 10d], the inhibition at 1 µM against Cathepsin-K (setting [5]) came out at 0%; against Factor-XA (setting [5]) it was 3%; at IDE (setting [5]), 0%; on Caspase-2 (setting [5]) it was 0%; against Cathepsin-D (setting [5]), 3%; on ACE2 (setting [5]) it was 1%. Besides, the inhibition at 1 µM on Caspase-7 (setting [5]) came to 1%; on MMP-7 (setting [5]) it was 7%; against Cathepsin-L (setting [5]), 9%; against Furin (setting [5]), 0%; against ADAM10 (setting [5]), 0%; against uPA (setting [5]), 3%. For the same molecule, the inhibition at 1 µM worked out at 12% against Cathepsin-S (setting [5]); 7% at ACE (setting [5]); 3% against Neprilysin (setting [5]); 1% against Caspase-1 (setting [5]); 0% on Caspase-5 (setting [5]); 0% on Caspase-3 (setting [5]). Further, the inhibition at 1 µM at BACE-1 (setting [5]) came out at 1%; against Caspase-6 (setting [5]), 0%; against TACE (setting [5]) it was 4%. For the same molecule, the inhibition on Thrombin (single stranded peptide substrate, inhibitor (text 1 μM), duplicates) was -3%; at MMP-3 it was 13%. Also, the “less active as inhibitor of MMP-12 than as MMP-13 inhibitor” value on MMP-12 [3] was 140 fold. Also, on MMP-12 [3] (fTHP substrates (footnote), 10-point dilution), the concentration for half-maximal inhibition (IC50) is 470 nM and 467 nM. On MMP-12 [4], the inhibition at 1000 µM turned out to be 40%.

Take `CNC(=O)[C@@H](NC(=O)c1ccc(-c2ccc(CSc3nc4c(c(=O)[nH]3)CCC4)cc2)o1)C(C)C` [(S)-17a]: the “inhibition of MMP-2 in single dose assay” value on MMP-2 is on record as “moderately active inhibitor”. On MMP-13 [1], the “improvement of MMP-13 inhibition potency compared to 5” value is recorded as ~1,000 fold and the IC50 was 5.9 nM. Also, on MMP-8, the “inhibition of MMP-8 in single dose assay” value is on record as “moderately active inhibitor”.
